Data published in patent US9145405B2, “Oxadiazole compound and preparation method thereof, pharmaceutical composition and use thereof” (SHANGHAI JIAO TONG UNIVERSITY, priority 2011, dated 2015).
≈ marks a conversion by molar mass, not a printed value. Read-outs that look alike come from different tables or passages of the source.

Assays:
[1] = test system: Cox_B3 virus; assay: Anti-Cox_B3 test: inhibition of cytopathic effect (CPE) in infected Vero cells, Reed-Muench; type: cell-based; conditions: Cox_B3 virus in Vero cells, CPE, Reed-Muench method; for IC50: read-out: IC50 (half-inhibitory concentration for viruses)
From the text: The present examples verifies experimental results of anti-Cox_B3 of the compounds 1-137of the present invention, Pleconaril, 3-[3,5-dimethyl-4-[5-(3-methy-1,2-oxazolyl)propoxy]phenyl]-5-(trifluonomethyl) -1,2,4-oxadiazole is used as positive control.

[2] = test system: Vero cells; assay: Toxicity (half toxic concentration) in the anti-Cox_B3 test on Vero cells; type: cell-based

Row | Molecule | IC50 [1] [µg/mL] | TC50 (half of the toxic concentration) ([2]; Vero cells, Cox_B3) [µg/mL] | IC50 (half-inhibitory concentration for viruses) [1] [µg/mL] | TC50 (half of the toxic concentration) [2] [µg/mL]
1 | Cc1csc(OCCOc2c(C)cc(-c3noc(C(F)(F)F)n3)cc2C)n1 [Compound 13, 3-[3,5-dimethyl-4-[2-(4-methylthiazole-2-oxy)ethoxyl]phenyl]-5-(trifluoromethyl)-1,2,4-oxadiazole] | 0.15 (≈ 0.376 µM) | 38.68 |  | 
2 | Cc1cc(-c2noc(C(F)(F)F)n2)cc(C)c1OCCOc1ncc(-c2noc(C(F)(F)F)n2)cc1F [Compound 116, 2-[2-[2,6-dimethyl-4-[5-(trifluoromethyl)-1,2,4-oxadiazole-3-yl]phenoxyl]ethoxyl]-3-fluoro-5-[5-(trifluoromethyl)-1,2,4-oxadiazole-3-yl]-pyridine] | 0.034 (≈ 0.0637 µM) | 39.21 |  | 
3 | Cc1cc(-c2noc(C(F)(F)F)n2)cc(C)c1OCCOc1nccc(C(F)(F)F)n1 [Compound 33, 2-[2-[2,6-dimethyl-4-[5-(trifluoromethyl)-1,2,4-oxadiazole-3-yl]phenoxyl]ethoxyl]-4-(trifluoromethyl) pyrimidine] | 0.12 (≈ 0.268 µM) | 35.28 |  | 
4 | Cc1cc(-c2noc(C(F)(F)F)n2)cc(C)c1OCCOc1ncc(C(=O)O)c(O)n1 [Compound 32, 2-[2-[2,6-dimethyl-4-[5-(trifluoromethyl)-1,2,4-oxadiazole-3-yl]phenoxyl]ethoxyl]-4-hydroxyl-pyrimidine-5-carboxylic acid] | 0.023 (≈ 0.0522 µM) | 40.28 |  | 
5 | Cc1cc(-c2noc(C(F)(F)F)n2)cc(C)c1OCCCOc1ccc(-c2noc(C(F)(F)F)n2)cc1 [Compound 118, 3-[3,5-dimethyl-4-[3-[4-[5-(trifluoromethyl)-1,2,4-oxadiazole-3-yl]phenoxyl]propoxy]phenyl]-5-(trifluoromethyl)-1,2,4-oxadiazole] | 0.048 (≈ 0.0908 µM) | 37.21 |  | 
6 | CCON=Cc1ccc(OCCOc2c(C)cc(-c3noc(C(F)(F)F)n3)cc2C)cn1 [Compound 44, 6-[2,6-dimethyl-4-[(5-(trifluoromethyl)-1,2,4-oxadiazole-3-yl)phenoxyl]ethoxyl]pyridine-2-oxy-ethylketoxime] |  |  | 0.078 | 34.35
7 | 6-[2,6-dimethyl-4-[(5-(trifluoromethyl)-1,2,4-oxadiazole-3-yl)phenoxyl]ethoxyl]-5-methylpyridine [Compound 51] |  |  | 0.078 | 40.58
8 | 3-[3-[2,6-dimethyl-4-[5-(trifluoromethyl)-1,2,4-oxadiazole-3-yl]phenoxyl]propoxy]isoxazole-5-carboxylate [Compound 61] |  |  | 0.23 | 37.58
9 | Cc1cc(-c2noc(C(F)(F)F)n2)cc(C)c1OCCOc1c(Cl)cccc1Cl [Compound 42, 3-[3,5-dimethyl-4-[(2,6-dichlorophenoxyl)ethoxyl]phenyl]-5-(trifluoromethyl)-1,2,4-oxadiazole] | 0.033 (≈ 0.0738 µM) | 36.89 |  | 
10 | 3-[2-[2,6-dimethyl-4-[5-(trifluoromethyl)-1,2,4-oxadiazole-3-yl]phenoxyl]ethoxyl]isoxazole-5-carboxylate [Compound 58] |  |  | 0.082 | 40.67
11 | Cc1cc(-c2noc(C(F)(F)F)n2)cc(C)c1OCCCOc1ccc(C#N)nn1 [Compound 133, 3-cyano-6-[3-[2,6-dimethyl-4-[5-(trifluoromethyl)-1,2,4-oxadiazole-3-yl]phenoxyl]propoxy]pyridazine] | 0.041 (≈ 0.0978 µM) | 38.78 |  | 
12 | 6-[2,6-dimethyl-4-[(5-(trifluoromethyl)-1,2,4-oxadiazole-3-yl)phenoxyl]ethoxyl]-5-trifluoromethylpyridine [Compound 52] |  |  | 0.13 | 41.28
13 | Cc1cc(-c2noc(C(F)(F)F)n2)cc(C)c1OCCCOc1ncc(-c2noc(C(F)(F)F)n2)cc1F [Compound 122, 2-[3-[2,6-dimethyl-4-[5-(trifluoromethyl)-1,2,4-oxadiazole-3-yl]phenoxyl]propoxy]-3-fluoro-5-[5-(trifluoromethyl)-1,2,4-oxadiazole-3-yl]-pyridine] | 0.041 (≈ 0.0749 µM) | 34.87 |  | 
14 | 4-[2,6-dimethyl-4-[(5-(trifluoromethyl)-1,2,4-oxadiazole-3-yl)phenoxyl]ethoxyl]-3-fluorobenzonitrile [Compound 92] |  |  | 0.18 | 43.78
15 | Cc1cc(-c2noc(C(F)(F)F)n2)cc(C)c1OCCOc1ccc(Cl)cc1Cl [Compound 43, 3-[3,5-dimethyl-4-[(2,4-dichlorophenoxyl)ethoxyl]phenyl]-5-(trifluoromethyl)-1,2,4-oxadiazole] | 0.044 (≈ 0.0984 µM) | 35.66 |  | 
16 | 6-[2,6-dimethyl-4-[(5-(trifluoromethyl)-1,2,4-oxadiazole-3-yl)phenoxyl]ethoxyl]-5-fluoro-2-hydroxyl-3-cyanopyridine [Compound 48] |  |  | 0.15 | 42.12

Row | Molecule | IC50 [1] [µg/mL] | TC50 (half of the toxic concentration) ([2]; Vero cells, Cox_B3) [µg/mL] | IC50 (half-inhibitory concentration for viruses) [1] [µg/mL] | TC50 (half of the toxic concentration) [2] [µg/mL]
17 | Cc1cc(-c2noc(C(F)(F)F)n2)cc(C)c1OCCOc1cc(C(F)(F)F)nn1C [Compound 16, 3-[3,5-dimethyl-4-[2-[1-methyl-3-(trifluoromethyl)-1H-pyrazole-5-oxy]ethoxyl]phenyl]-5-(trifluoromethyl)-1,2,4-oxadiazole] | 0.09 (≈ 0.2 µM) | 41.38 |  | 
18 | Cc1ccc(OCCOc2c(C)cc(-c3noc(C(F)(F)F)n3)cc2C)c(F)c1 [Compound 39, 3-[3,5-dimethyl-4-[(2-fluoro-4-methylphenoxyl)ethoxyl]phenyl]-5-(trifluoromethyl)-1,2,4-oxadiazole] | 0.056 (≈ 0.136 µM) | 44.28 |  | 
19 | Cc1cc(-c2nc(C(F)(F)F)no2)cc(C)c1OCCOc1noc(C(F)(F)F)n1 [Compound 22] |  |  | 0.08 | 40.78
20 | 6-[2,6-dimethyl-4-[(5-(trifluoromethyl)-1,2,4-oxadiazole-3-yl)phenoxyl]ethoxyl]-5-methylpyridine [Compound 105] |  |  | 0.13 | 43.18
21 | 4-[2,6-dimethyl-4-[(5-(trifluoromethyl)-1,2,4-oxadiazole-3-yl)phenoxyl]ethoxyl]-2-hydroxyl-5-fluoropyrimidine [Compound 53] |  |  | 0.056 | 46.89
22 | Cc1nc(-c2ccc(OCCOc3c(C)cc(-c4noc(C(F)(F)F)n4)cc3C)nc2)no1 [Compound 113, 2-[2-[2,6-dimethyl-4-[5-(trifluoromethyl)-1,2,4-oxadiazole-3-yl]phenoxyl]ethoxyl]-5-(5-methyl-1,2,4-oxadiazole-3-yl)-pyridine] | 0.036 (≈ 0.078 µM) | 35.22 |  | 
23 | Cc1cc(-c2noc(C(F)(F)F)n2)cc(C)c1OCCOc1nnc(C(F)(F)F)s1 [Compound 30, 3-[3,5-dimethyl-4-[2-[5-trifluoromethyl-1,3,4-thiadiazole-2-oxy]ethoxyl]phenyl]-5-(trifluoromethyl)-1,2,4-oxadiazole] | 0.08 (≈ 0.176 µM) | 34.39 |  | 
24 | Cc1cc(-c2noc(C(F)(F)F)n2)cc(C)c1OCCCOc1ccc([N+](=O)[O-])cn1 [Compound 134, 2-[3-[2,6-dimethyl-4-[5-(trifluoromethyl)-1,2,4-oxadiazole-3-yl]phenoxyl]propoxy]-5-nitropyridine] | 0.045 (≈ 0.103 µM) | 40.25 |  | 
25 | Cc1nc(-c2ccc(OCCOc3c(C)cc(-c4noc(C(F)(F)F)n4)cc3C)cc2)no1 [Compound 111, 3-[3,5-dimethyl-4-[2-[4-(5-methyl-1,2,4-oxadiazole-3-yl)phenoxyl]ethoxyl]phenyl]-5-(trifluoromethyl)-1,2,4-oxadiazole] | 0.051 (≈ 0.111 µM) | 38.21 |  | 
26 | 3-[2-(2,6-dimethyl-4-[(5-(trifluoromethyl)-1,2,4-oxadiazole-3-yl)phenoxyl]ethoxyl]-2-formamide-6-fluoropyrazine [Compound 109] |  | 48.21 | 0.13 | 
27 | COC(=O)c1cnc(OCCOc2c(C)cc(-c3noc(C)n3)cc2C)c(F)c1 [Compound 103] |  |  | 0.07 | 39.55
28 | COC(=O)c1cnc(OCCOc2c(C)cc(-c3noc(C(F)(F)F)n3)cc2C)c(F)c1 [Compound 49, 6-[2,6-dimethyl-4-[(5-(trifluoromethyl)-1,2,4-oxadiazole-3-yl)phenoxyl]ethoxyl]-5-fluoro-3-pyridinecarboxylate] |  |  | 0.096 | 35.36
29 | Cc1cc(-c2noc(C(F)(F)F)n2)cc(C)c1OCCSc1nccc(C(F)(F)F)n1 [Compound 34, 2-[2-[2,6-dimethyl-4-[5-(trifluoromethyl)-1,2,4-oxadiazole-3-yl]phenoxyl]ethylthio]-4-(trifluoromethyl) pyrimidine] | 0.11 (≈ 0.237 µM) | 33.28 |  | 
30 | Cc1cc(-c2noc(C(F)(F)F)n2)cc(C)c1OCCCOc1ccc(-c2noc(C(F)(F)F)n2)cc1F [Compound 124] |  |  | 0.037 | 32.58
31 | Cc1cc(OCCOc2c(C)cc(-c3noc(C(F)(F)F)n3)cc2C)ns1 [Compound 10, 3-[3,5-dimethyl-4-[2-(5-methylisothiazole-3-oxy)ethoxyl]phenyl]-5-(trifluoromethyl)-1,2,4-oxadiazole] | 0.042 (≈ 0.105 µM) | 46.47 |  | 
